# Read-outs that look alike come from different tables or passages of the source. Starred links: 1 amine or outer side, 2 acyl side, 3 side chain; linkers in the order of their positions; H or OH if unused. Positions of bridges follow the written chain, without caps; N, C: chain ends. Non-standard residues stand in square brackets, D forms with d. Residues, ends and D or L forms follow the SMILES beside them. No end group written: not given here. Trp(6-OH,1-(4-HO2C-Ph)) = N[C@@H](Cc1cn(-c2ccc(C(=O)O)cc2)c2cc(O)ccc12)C(=O)O; Phe(3-OCH2COOH) = N[C@@H](Cc1cccc(OCC(=O)O)c1)C(=O)O; NMePhe(4-CH2NH2) = CN[C@@H](Cc1ccc(CN)cc1)C(=O)O; Phe(3-CONH2) = NC(=O)c1cccc(C[C@H](N)C(=O)O)c1; Phe(4-CONH2) = NC(=O)c1ccc(C[C@H](N)C(=O)O)cc1; Phe(4-COOH) = N[C@@H](Cc1ccc(C(=O)O)cc1)C(=O)O; Trp(7-aza) = N[C@@H](Cc1c[nH]c2ncccc12)C(=O)O; Gly(N(CH2)3COOH) = O=C(O)CCCNCC(=O)O; X1 = CCCCCCC[C@H](N[*:1])C(=O)[*:2]; NMeAad = CN[C@@H](CCCC(=O)O)C(=O)O; NMeF = CN[C@@H](Cc1ccccc1)C(=O)O; NMeA = CN[C@@H](C)C(=O)O; Sar = CNCC(=O)O
# Legend:
# Assay type in all cases: cell-based
# GDF-11 = target: T1, GDF-11 (Homo sapiens, UniProt O95390); test: Reporter gene assay for myostatin signaling in HepG2 cell line, Evaluation Procedure (1), GDF-11 inhibition
# T1 construct: purchased R&D systems 1958-GD-G8/CF
# T1 sequence (O95390 299-407): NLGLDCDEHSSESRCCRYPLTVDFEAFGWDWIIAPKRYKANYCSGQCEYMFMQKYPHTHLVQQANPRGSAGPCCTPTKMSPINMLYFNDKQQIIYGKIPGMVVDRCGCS
# Method: (§1) In this Example, the in vitro myostatin inhibitory effects of the peptides synthesized in Examples 1 and 2 were evaluated using a reporter gene assay for myostatin signaling in HepG2 cell line.
# (§2) HepG2 cell line (HB-8065, ATCC) cultured in EMEM (055-08975, WAKO Industries) containing 10% FBS (10270106, Gibco) and 50 µg/mL gentamicin (11980-14, Nacalai Tesque) was seeded in 96-well plates (167008, Thermo) at 2.0 × 10^4 cells/well and incubated in a CO2 incubator (37°C, 5% CO2) for 24 hours. The pGL3(CAGA)12-luc plasmid, namely a pGL3 vector (E1751, Promega) having a luciferase gene inserted downstream of a promoter sequence with 12 CAGA repeats attached, was added to the wells along with a transfection reagent (X-treamGENE9 DNA Transfection Reagent, 6365809001, Roche) at a concentration of 0.04 µg/well. The cell line was cultured in a CO2 incubator (37°C, 5% CO2) for 24 hours for transfection. The medium was discarded and replaced with EMEM containing 50 µL/well of 0.1% bovine serum albumin (A7030, Sigma) and 50 µg/mL gentamicin, and incubated in a CO2 incubator (37°C, 5% CO2) for 2 hours.
# (§3) Myostatin (788-G8/C, R&D systems) or GDF-11 (1958-GD-G8/CF, R&D systems) was added so that the final concentrations were those listed in Table 5.
# (§4) A 4-fold dilution series of various peptides synthesized in Examples 1 and 2 was added to achieve 0.006-100 nmol/L (myostatin inhibition) and 0.12-2000 nmol/L (GDF-11 inhibition). At this time, blank wells, in which neither myostatin, GDF-11, nor each peptide was added, were also prepared and incubated in a CO2 incubator (37°C, 5% CO2) for 20 to 24 hours.
# (§5) The medium containing the cells was removed, and a mixture containing PBS (14190144, Thermo) and a chromogenic substrate One-Glo Luciferase Assay System (E6120, Promega) at a ratio of 1:1 was added to each well at 100 µL/well. This was stirred with a plate shaker for 5 min and transferred to a 384-well plate (3570, Corning) at a volume of 20 µL/well.
# (§6) The plate was centrifuged at 1,000 × g for 1 min and the luminescence signal (700 nm luminescence) was measured using a plate reader (Envision 2104, PerkinElmer). Based on the measured values, IC50 values of the peptides were calculated using software (Prism 9, GraphPad). […]
# (§7) In this Example, the in vitro myostatin inhibitory effects of the peptides synthesized in Examples 10 and 11 were evaluated according to the Evaluation Procedure (1) in Example 3.
# Myostatin [1] = target: T2, Myostatin (Homo sapiens, UniProt O14793); test: Reporter gene assay for myostatin signaling in HepG2 cell line, Evaluation Procedure (1), myostatin inhibition
# T2 construct: active myostatin (also called mature myostatin) is a homodimer consisting of two C-terminal growth factor domains; purchased R&D systems 788-G8/CF
# T2 sequence (O14793 267-375): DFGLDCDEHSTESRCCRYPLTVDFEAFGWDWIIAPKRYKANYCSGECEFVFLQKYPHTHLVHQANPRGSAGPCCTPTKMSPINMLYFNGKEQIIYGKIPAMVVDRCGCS
# Method: as §1, §2, §3, §4, §5, §6, §7
# Myostatin [2] = test: as above; conditions: for Selectivity: GDF-11 IC50 versus Myostatin IC50
# Method: as §1, §2, §3, §4, §5, §6, §7
# [3] = Method A: GDF-11 10 ng/mL, read-out: IC50 (Luciferase) GDF-11 HepG2
# [4] = Method A: Myostatin 10 ng/mL, read-out: IC50 (Luciferase) Myostatin HepG2
Compound,IC50 (GDF-11; [3]) [µM],IC50 (Myostatin [1]; [4]) [µM],Selectivity (Myostatin [2]; Method A),further results
CCCCCCC[C@@H]1NC(=O)[C@@H]2Cc3ccc(cc3)CNC(=O)C[C@H](NC(=O)CSC[C@H](C(=O)O)NC(=O)[C@H](Cc3ccccc3)N(C)C(=O)[C@H](C)N(C)C1=O)C(=O)N[C@@H](C)C(=O)N[C@@H](Cc1c[nH]c3ccccc13)C(=O)N[C@@H](Cc1ccc(O)cc1)C(=O)N(C)[C@@H](Cc1ccccc1)C(=O)N[C@@H]([C@@H](C)CC)C(=O)N(C)[C@@H](C)C(=O)N[C@@H](Cc1cccc(OCC(=O)O)c1)C(=O)N[C@@H](Cc1ccc(C(=O)O)cc1)C(=O)N[C@@H](CCCNC(=N)N)C(=O)N2C [Myostatin_99_v386] ({CH2CO}-DAWY[NMeF]I[NMeA][Phe(3-OCH2COOH)][Phe(4-COOH)]R[NMePhe(4-CH2NH2)][X1][NMeA][NMeF][dC]-OH; lactam 1-11 (inferred); thioether N-15 (inferred); N-terminus and C-terminus assumed),–,–,–,Selectivity (Myostatin [2]; Method D): 294.1
"CCCCCCC[C@@H]1NC(=O)[C@@H]2Cc3ccc(cc3)CNC(=O)CCC[C@@H](C(=O)N[C@@H](C)C(=O)N[C@@H](Cc3cn(-c4ccc(C(=O)O)cc4)c4cc(O)ccc34)C(=O)N[C@@H](Cc3ccc(O)cc3)C(=O)N(C)[C@@H](Cc3ccccc3)C(=O)N[C@@H]([C@@H](C)CC)C(=O)N3CCC[C@@H]3C(=O)N[C@@H](Cc3cccc(OCC(=O)O)c3)C(=O)N[C@@H](Cc3ccc(C(=O)O)cc3)C(=O)N[C@@H](CCCNC(=N)N)C(=O)N2C)N(C)C(=O)[C@H](C)N(C)C(=O)[C@@H](C)NC(=O)[C@H](Cc2ccccc2)N(C)C(=O)[C@H](C)N(C)C1=O [Myostatin_99_v490] (cyclo(A[Trp(6-OH,1-(4-HO2C-Ph))]Y[NMeF]I[dP][Phe(3-OCH2COOH)][Phe(4-COOH)]R[NMePhe(4-CH2NH2)][X1][NMeA][NMeF][dA][NMeA][NMeAad]); lactam 10-16)",–,–,–,"IC50 (GDF-11; HepG2, luciferase reporter, Evaluation Procedure (1), Method D, read-out: IC50 (Luciferase) GDP-11 HepG2): 0.112 µM; IC50 (Myostatin [1]; HepG2, luciferase reporter, Evaluation Procedure (1), Method D): 0.0007 µM"
A-R-W-Y-MeF-I-MeG-Y-Y-R-MeF-L-MeA-MeF-C (ARWY[NMeF]I[Sar]YYR[NMeF]L[NMeA][NMeF]C) [SEQ ID NO: 1],–,–,–,"inhibitory activity against myostatin (Myostatin [2]; HepG2 reporter assays, statement in words): confirmed to have myostatin inhibitory activity"

# More lines, main results first:
IC50 (GDF-11; [3]) [µM],IC50 (Myostatin [1]; [4]) [µM],Compound,Selectivity (Myostatin [2]; Method A),further results
0.81,0.0084,CC[C@H](C)[C@@H]1NC(=O)[C@H](Cc2ccccc2)N(C)C(=O)[C@H](Cc2ccc(O)cc2)NC(=O)[C@H](Cc2c[nH]c3ncccc23)NC(=O)[C@H](C)NC(=O)CN(CCCC(=O)O)C(=O)CSC[C@H](C(=O)O)NC(=O)[C@H](Cc2ccccc2)N(C)C(=O)[C@H](C)N(C)C(=O)[C@H](CC(C)C)NC(=O)[C@H](Cc2ccccc2)N(C)C(=O)[C@H](CCCNC(=N)N)NC(=O)[C@H](Cc2ccc(C(N)=O)cc2)NC(=O)[C@H](Cc2ccccc2)NC(=O)CN(C)C1=O [Myostatin_99_v44] ({CH2CO}-[Gly(N(CH2)3COOH)]A[Trp(7-aza)]Y[NMeF]I[Sar]F[Phe(4-CONH2)]R[NMeF]L[NMeA][NMeF][dC]-OH; thioether N-15),96,–
0.332,0.0128,CC[C@H](C)[C@@H]1NC(=O)[C@H](Cc2ccccc2)N(C)C(=O)[C@H](Cc2ccc(O)cc2)NC(=O)[C@H](Cc2c[nH]c3ncccc23)NC(=O)[C@H](C)NC(=O)CN(CCCC(=O)O)C(=O)CSC[C@H](C(=O)O)NC(=O)[C@H](Cc2ccccc2)N(C)C(=O)[C@H](C)N(C)C(=O)[C@H](CC(C)C)NC(=O)[C@H](Cc2ccccc2)N(C)C(=O)[C@H](CCCNC(=N)N)NC(=O)[C@H](Cc2cccc(C(N)=O)c2)NC(=O)[C@H](Cc2ccccc2)NC(=O)CN(C)C1=O [Myostatin_99_v45] ({CH2CO}-[Gly(N(CH2)3COOH)]A[Trp(7-aza)]Y[NMeF]I[Sar]F[Phe(3-CONH2)]R[NMeF]L[NMeA][NMeF][dC]-OH; thioether N-15),26,–
